In ChEMBL document CHEMBL3991601, “The target landscape of clinical kinase drugs” (Science, 2017):
Active and inactive are the calls of the source. Cut-off read from the data, not from the text of the source, for most assays here: actives have a measured Kd and inactives only a lower limit.

What was measured:
[1] = target: T1, Serine/threonine-protein kinase 3 (Homo sapiens, UniProt Q13188)
T1 sequence (Q13188 whole entry): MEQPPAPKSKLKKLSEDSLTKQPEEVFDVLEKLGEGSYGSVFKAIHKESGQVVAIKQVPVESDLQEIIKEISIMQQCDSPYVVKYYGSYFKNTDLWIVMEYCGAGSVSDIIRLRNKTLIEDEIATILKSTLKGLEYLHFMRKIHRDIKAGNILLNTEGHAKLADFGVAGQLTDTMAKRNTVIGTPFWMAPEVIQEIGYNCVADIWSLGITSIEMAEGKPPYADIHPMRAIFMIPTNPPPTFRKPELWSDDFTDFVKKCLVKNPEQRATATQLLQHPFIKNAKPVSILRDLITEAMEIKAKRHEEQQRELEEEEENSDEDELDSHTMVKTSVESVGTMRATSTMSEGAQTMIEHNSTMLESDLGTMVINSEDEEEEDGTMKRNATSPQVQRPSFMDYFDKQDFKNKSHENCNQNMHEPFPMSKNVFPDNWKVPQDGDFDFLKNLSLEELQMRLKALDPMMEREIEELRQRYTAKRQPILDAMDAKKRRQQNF

[2] = target: T2, Serine/threonine-protein kinase ULK1 (Homo sapiens, UniProt O75385)
T2 sequence (O75385 whole entry): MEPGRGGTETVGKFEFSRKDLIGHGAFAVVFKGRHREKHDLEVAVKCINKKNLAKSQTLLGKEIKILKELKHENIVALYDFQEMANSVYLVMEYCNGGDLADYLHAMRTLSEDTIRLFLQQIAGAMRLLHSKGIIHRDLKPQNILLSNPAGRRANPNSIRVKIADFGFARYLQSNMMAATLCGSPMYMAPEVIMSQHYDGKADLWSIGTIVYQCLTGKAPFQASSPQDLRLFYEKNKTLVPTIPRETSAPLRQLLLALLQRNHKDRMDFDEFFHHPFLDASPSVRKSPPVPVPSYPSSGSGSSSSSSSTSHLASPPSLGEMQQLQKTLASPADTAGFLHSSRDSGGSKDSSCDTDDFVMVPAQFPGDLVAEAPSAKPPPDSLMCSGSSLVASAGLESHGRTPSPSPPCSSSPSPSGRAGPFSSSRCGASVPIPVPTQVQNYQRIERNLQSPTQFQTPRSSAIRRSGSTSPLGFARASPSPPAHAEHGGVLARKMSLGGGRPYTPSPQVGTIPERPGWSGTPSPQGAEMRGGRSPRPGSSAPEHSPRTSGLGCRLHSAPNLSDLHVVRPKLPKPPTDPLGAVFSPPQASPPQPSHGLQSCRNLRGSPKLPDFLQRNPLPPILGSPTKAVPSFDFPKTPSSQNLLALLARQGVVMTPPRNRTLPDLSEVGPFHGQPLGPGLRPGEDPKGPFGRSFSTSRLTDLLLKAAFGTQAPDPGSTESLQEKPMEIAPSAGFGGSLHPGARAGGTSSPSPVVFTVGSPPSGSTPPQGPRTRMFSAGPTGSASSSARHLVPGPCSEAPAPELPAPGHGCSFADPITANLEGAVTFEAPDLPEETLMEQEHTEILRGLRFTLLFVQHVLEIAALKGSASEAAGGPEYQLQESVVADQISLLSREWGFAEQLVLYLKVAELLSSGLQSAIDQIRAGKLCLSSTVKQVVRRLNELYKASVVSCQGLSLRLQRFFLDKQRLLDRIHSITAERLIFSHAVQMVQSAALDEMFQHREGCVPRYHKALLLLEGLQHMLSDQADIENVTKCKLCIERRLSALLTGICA

[3] = target: T3, Serine/threonine-protein kinase TAO1 (Homo sapiens, UniProt Q7L7X3)
T3 sequence (Q7L7X3 whole entry): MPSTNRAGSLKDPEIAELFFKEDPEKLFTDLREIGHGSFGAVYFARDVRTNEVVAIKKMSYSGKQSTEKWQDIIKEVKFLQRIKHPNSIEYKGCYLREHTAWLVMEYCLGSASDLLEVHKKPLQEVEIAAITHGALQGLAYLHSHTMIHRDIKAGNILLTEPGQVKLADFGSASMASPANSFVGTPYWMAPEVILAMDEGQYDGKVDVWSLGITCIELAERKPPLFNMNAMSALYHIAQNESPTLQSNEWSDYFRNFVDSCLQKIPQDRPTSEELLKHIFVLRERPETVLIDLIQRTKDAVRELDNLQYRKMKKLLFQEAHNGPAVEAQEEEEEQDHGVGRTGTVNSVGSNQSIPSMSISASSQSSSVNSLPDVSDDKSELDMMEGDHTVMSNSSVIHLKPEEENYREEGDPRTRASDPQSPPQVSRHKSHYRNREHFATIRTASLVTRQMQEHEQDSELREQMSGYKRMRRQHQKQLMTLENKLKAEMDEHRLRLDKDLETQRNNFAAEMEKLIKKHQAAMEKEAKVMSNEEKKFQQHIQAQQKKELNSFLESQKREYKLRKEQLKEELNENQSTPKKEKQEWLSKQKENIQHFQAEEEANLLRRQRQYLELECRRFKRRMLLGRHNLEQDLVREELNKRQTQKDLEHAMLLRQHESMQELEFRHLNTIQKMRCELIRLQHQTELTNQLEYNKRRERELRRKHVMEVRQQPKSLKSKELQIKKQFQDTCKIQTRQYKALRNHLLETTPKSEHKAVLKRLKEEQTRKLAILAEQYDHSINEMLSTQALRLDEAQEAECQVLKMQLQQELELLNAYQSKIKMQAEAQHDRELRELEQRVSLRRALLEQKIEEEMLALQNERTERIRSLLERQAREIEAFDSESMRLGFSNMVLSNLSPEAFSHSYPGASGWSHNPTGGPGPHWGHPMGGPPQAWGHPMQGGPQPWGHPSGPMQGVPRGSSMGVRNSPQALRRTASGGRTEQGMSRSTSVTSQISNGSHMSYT

[4] = target: Insulin receptor (Homo sapiens, UniProt P06213)
Note: in the data inactive means no Kd found up to 30 µM.

Chain of Insulin receptor (P06213 28-758 limits assumed): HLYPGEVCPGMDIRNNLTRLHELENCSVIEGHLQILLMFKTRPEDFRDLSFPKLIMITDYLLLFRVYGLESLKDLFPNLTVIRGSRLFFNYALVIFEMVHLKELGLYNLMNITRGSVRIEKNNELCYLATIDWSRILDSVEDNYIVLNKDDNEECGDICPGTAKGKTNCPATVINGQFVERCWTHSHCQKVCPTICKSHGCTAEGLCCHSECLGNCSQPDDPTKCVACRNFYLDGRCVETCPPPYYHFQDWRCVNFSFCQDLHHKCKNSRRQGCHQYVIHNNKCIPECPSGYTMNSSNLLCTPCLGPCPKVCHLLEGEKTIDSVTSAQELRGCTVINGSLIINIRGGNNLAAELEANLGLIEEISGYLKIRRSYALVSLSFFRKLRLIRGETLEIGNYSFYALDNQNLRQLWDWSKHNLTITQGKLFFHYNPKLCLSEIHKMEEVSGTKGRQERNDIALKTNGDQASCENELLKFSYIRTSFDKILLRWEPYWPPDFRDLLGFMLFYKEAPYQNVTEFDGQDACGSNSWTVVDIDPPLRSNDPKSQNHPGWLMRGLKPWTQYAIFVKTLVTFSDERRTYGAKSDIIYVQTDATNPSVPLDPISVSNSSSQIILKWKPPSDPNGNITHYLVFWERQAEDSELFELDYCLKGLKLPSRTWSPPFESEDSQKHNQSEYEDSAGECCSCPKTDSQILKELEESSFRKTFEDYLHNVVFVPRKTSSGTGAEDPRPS
Chain of Insulin receptor (P06213 763-1382 limits assumed): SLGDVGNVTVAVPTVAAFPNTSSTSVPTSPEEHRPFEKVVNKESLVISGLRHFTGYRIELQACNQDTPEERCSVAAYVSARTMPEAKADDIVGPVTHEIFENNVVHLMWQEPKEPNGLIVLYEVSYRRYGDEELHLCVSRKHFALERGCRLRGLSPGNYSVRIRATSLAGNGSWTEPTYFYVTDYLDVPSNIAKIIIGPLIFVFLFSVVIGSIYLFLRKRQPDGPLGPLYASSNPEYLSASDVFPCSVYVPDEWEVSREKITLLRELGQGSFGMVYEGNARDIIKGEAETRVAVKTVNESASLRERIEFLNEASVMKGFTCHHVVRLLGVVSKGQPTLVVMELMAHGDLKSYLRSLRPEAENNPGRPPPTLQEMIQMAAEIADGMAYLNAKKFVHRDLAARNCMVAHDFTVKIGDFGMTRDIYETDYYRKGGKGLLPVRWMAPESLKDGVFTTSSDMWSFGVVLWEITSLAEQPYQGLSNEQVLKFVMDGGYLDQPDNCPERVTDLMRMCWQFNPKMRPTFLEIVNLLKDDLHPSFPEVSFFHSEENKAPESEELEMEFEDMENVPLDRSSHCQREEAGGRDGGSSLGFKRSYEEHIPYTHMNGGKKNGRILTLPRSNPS

Structure (SMILES)	Kd [1]	Kd [2]	Kd [3]	Kd [4]
O=C(Cc1ccc(-c2ccc(OCCN3CCOCC3)cc2)cn1)NCc1ccccc1 [TIRBANIBULIN]	> 30 µM (inactive)	> 30 µM (inactive)	> 30 µM (inactive)	> 30 µM (inactive)
O=C1NC(=O)[C@@H](c2cn3c4c(cccc24)CCC3)[C@@H]1c1c[nH]c2ccccc12 [TIVANTINIB]	> 30 µM (inactive)	> 30 µM (inactive)	> 30 µM (inactive)	> 30 µM (inactive)
C[C@@H](NC(=O)c1ncnc(N)c1Cl)c1ncc(C(=O)Nc2cc(C(F)(F)F)c(Cl)cn2)s1 [TOVORAFENIB]	> 30 µM (inactive)	> 30 µM (inactive)	> 30 µM (inactive)	> 30 µM (inactive)
Cc1cc(Nc2ncnc3ccc(NC4=NC(C)(C)CO4)cc23)ccc1Oc1ccn2ncnc2c1 [TUCATINIB]	> 30 µM (inactive)	> 30 µM (inactive)	> 30 µM (inactive)	> 30 µM (inactive)
Cn1ncc(Cl)c1-c1cc(C(=O)N[C@H](CN)Cc2ccc(F)c(F)c2)oc1Cl [UPROSERTIB]	> 30 µM (inactive)	> 30 µM (inactive)	> 30 µM (inactive)	> 30 µM (inactive)
CC(C)c1cc(CNc2nc(Nc3cc(C4CC4)[nH]n3)cc(N3CCN(C)CC3)n2)on1 [XL-228]	0.462 µM (active)	> 30 µM (inactive)	> 30 µM (inactive)	0.144 µM (active)
C[C@@H](N)c1ccc(C(=O)Nc2ccnc3[nH]ccc23)cc1 [Y-39983]	> 30 µM (inactive)	> 30 µM (inactive)	2.03 µM (active)	> 30 µM (inactive)
CN1C/C=C/CCOc2cccc(c2)-c2ccnc(n2)Nc2cccc(c2)C1 [ZOTIRACICLIB]	0.311 µM (active)	> 30 µM (inactive)	2.14 µM	> 30 µM (inactive)
